Test results published in patent publication US6828316B2, “Diamide compound and medicine containing the same” (Kowa Co., Ltd., priority 1996, dated 2004).
Structures can show the parent of a compound that is named as a salt.

System: production of IgE antibody
Experiment: Evaluation of inhibitory effect on production of IgE antibody
Format: cell-based
Details: B-cell; test agent at a concentration of 10^−5 M; mouse (Balb/C) spleen B cells cultured with LPS then mouse IL-4; IgE in culture supernatant by ELISA
Experimental: Evaluation of Inhibitory Effect on Production of IgE Antibody
A spleen was enucleated from a mouse (Balb/C, male, aged 8 weeks) and shredded in 0.3% BSA/HBSS to prepare single cells by means of a 200-mesh screen. Further, the single cells were hemolyzed by 0.75% ammonium chloride-17 mM Tris solution to prepare a splenocyte suspension (1×10^7/ml) using RPMI 1640 medium/25 mM HPES/0.3% BSA. After the suspension was reacted with a mouse anti-mouse Thy-1.2 monoclonal antibody at 4° C. for 1 hour, the reaction mixture was centrifuged, and the sediment cells were suspended again (1×10^7/ml, RPMI/HPES/BAS). After the suspension was then reacted with a low-cytotoxic rabbit complement (product of Cedarlane Co.) at 37° C. for 1 hour, killed cells were removed by specific gravity centrifugation using lympholyte M (product of Cedarlane Co.) to obtain a B cell fraction as viably cells.
After B cells (10^5/0.2 ml/well) were cultured for a day together with LPS (E. coli 026:B6, product of DIFCO Co.) using a 96-well plate, mouse IL-4 (product of Genzyme Co.) was added to conduct culture further for 7 days.
Each test agent was added on the first day of the culture, and the amount of IgE in a culture supernatant was measured by ELISA, thereby calculating out the inhibitory effect of the agent on the production of an IgE antibody.

SMILES	inhibition at 10 µM [%]
COc1cc(/C=C/C=C/C(=O)N2CCN(C(=O)/C=C/C=C/c3cc(OC)c(OC)c(OC)c3)C(CN(C)C)C2)cc(OC)c1OC (stereo not shown) [Example 36, 1,4-bis[5-(3,4,5-trimethoxyphenyl)-penta-(2E,4E)-dienoyl]-2-(N,N-dimethylaminomethyl)-piperazine hydrochloride]	100
O=C(/C=C/C=C/c1cccc2cccnc12)N1CCN(C(=O)/C=C/C=C/c2cccc3cccnc23)CC1 [Example 32, 1,4-bis[5-(8-quinolyl)penta-(2E,4E)-dienoyl]piperazine]	85
COc1cc(/C=C/C=C/C(=O)N2CCN(C(=O)/C=C/C=C/c3cc(OC)c(OC)c(OC)c3)C(C(=O)O)C2)cc(OC)c1OC (stereo not shown) [Example 34, 1,4-bis[5-(3,4,5-trimethoxyphenyl)-penta-(2E,4E)-dienoyl]piperazine-2-carboxylic acid]	90
O=C(/C=C/C=C/c1ccccn1)N1CCCN(C(=O)/C=C/C=C/c2ccccn2)CC1 [Example 19, 1,4-bis[5-(2-pyridyl)penta-(2E,4E)-dienoyl]hexahydro-1,4-diazepine]	20
COc1cc(/C=C/C=C/C(=O)N2CCN(C(=O)/C=C/C=C/c3cc(OC)c(OC)c(OC)c3)c3ncccc32)cc(OC)c1OC [Example 42, 1,4-bis[5-(3,4,5-trimethoxyphenyl)-penta-(2E,4E)-dienoyl]-pyrido[2,3-b]-1,2,3,4-tetrahydropyrazine]	95
O=C(/C=C/C=C/c1cccc2cccnc12)N1CCCN(C(=O)/C=C/C=C/c2cccc3cccnc23)CC1 [Example 25, 1,4-bis[5-(8-quinolyl)penta-(2E,4E)-dienoyl]hexahydro-1,4-diazepine]	100
COc1cc(/C=C/C=C/C(=O)N2CCCN(C(=O)/C=C/C=C/c3cc(OC)c(OC)c(OC)c3)CC2)cc(OC)c1OC [Example 17, 1,4-bis[5-(3,4,5-trimethoxyphenyl)-penta-(2E,4E)-dienoyl]hexahydro-1,4-diazepine]	100
O=C(/C=C/C=C/c1ccccc1)N1CCCN(C(=O)/C=C/C=C/c2ccccc2)CC1 [Example 1, 1,4-bis[5-phenylpenta-(2E,4E)-dienoyl]hexahydro-1,4-diazepine]	100
COc1cc(/C=C/C=C/C(=O)N2CCN(C(=O)/C=C/C=C/c3cc(OC)c(OC)c(OC)c3)CC2)cc(OC)c1OC [Example 29, 1,4-bis[5-(3,4,5-trimethoxyphenyl)-penta-(2E,4E)-dienoyl]piperazine]	100
COc1cc(/C=C/C=C/C(=O)N2CCN(C(=O)/C=C/C=C/c3cc(OC)c(OC)c(OC)c3)c3ccccc32)cc(OC)c1OC [Example 41, 1,4-bis[5-(3,4,5-trimethoxyphenyl)-penta-(2E,4E)-dienoyl]-1,2,3,4-tetrahydroquinoxaline]	100
